Source: PMC5066209, “Multiple cellobiohydrolases and cellobiose phosphorylases cooperate in the ruminal bacterium Ruminococcus albus 8 to degrade cellooligosaccharides” (Scientific Reports, 2016)

Experiments:
Ra3055 TM2 [1] = molecular target: T1, Ra3055 TM2 (Hominimerdicola alba, UniProt E9SHH5); experiment: cellobiose release by HPAEC-PAD, Michaelis-Menten fit; type: biochemical; details: 0.01-30 mM cellotetraose, 10 min; pH and temperature of kinetics not stated
T1 construct: gene CUS_6909; truncation without C-terminal CBM37 (CBM4_9 - Ig-like - GH9); pET-46, E. coli
Description: cellobiose release by HPAEC-PAD, Michaelis-Menten fit on Ra3055 TM2

Ra3055 TM4 = molecular target: T2, Ra3055 TM4 (Hominimerdicola alba, UniProt E9SHH5); experiment: as above; type: biochemical; details: 0.01-30 mM cellotetraose, 10 min; pH and temperature of kinetics not stated
T2 construct: gene CUS_6909; GH9 catalytic domain only; pET-46, E. coli
Description: cellobiose release by HPAEC-PAD, Michaelis-Menten fit on Ra3055 TM4

Ra3055 TM1 [2] = molecular target: T3, Ra3055 TM1 (Hominimerdicola alba, UniProt E9SHH5); experiment: as above; type: biochemical; details: 0.01-30 mM cellotetraose, 10 min; pH and temperature of kinetics not stated
T3 construct: gene CUS_6909; truncation without N-terminal CBM4_9 (Ig-like - GH9 - CBM37); pET-46, E. coli
Description: cellobiose release by HPAEC-PAD, Michaelis-Menten fit on Ra3055 TM1

Ra3055 TM3 [3] = molecular target: T4, Ra3055 TM3 (Hominimerdicola alba, UniProt E9SHH5); experiment: as above; type: biochemical; details: 0.01-30 mM cellotetraose, 10 min; pH and temperature of kinetics not stated
T4 construct: gene CUS_6909; truncation to Ig-like - GH9 (no CBM4_9, no CBM37); pET-46, E. coli
Description: cellobiose release by HPAEC-PAD, Michaelis-Menten fit on Ra3055 TM3

Ra3055 TM3 [4] = molecular target: T4, Ra3055 TM3; experiment: isothermal titration calorimetry; type: binding; details: 50 mM sodium phosphate, 150 mM NaCl, pH 7.5; single-site fit
Ra3055 TM1 [5] = molecular target: T3, Ra3055 TM1; experiment: isothermal titration calorimetry; type: binding; details: 50 mM sodium phosphate, 150 mM NaCl, pH 7.5; single-site fit
Ra3055 (WT) = molecular target: T5, Ra3055 (WT) (Hominimerdicola alba, UniProt E9SHH5); experiment: isothermal titration calorimetry; type: binding; details: 50 mM sodium phosphate, 150 mM NaCl, pH 7.5; single-site fit
T5 construct: gene CUS_6909; full-length multimodular CBM4_9 - Ig-like - GH9 - CBM37

Ra3055 TM2 [6] = molecular target: T1, Ra3055 TM2; experiment: isothermal titration calorimetry; type: binding; details: 50 mM sodium phosphate, 150 mM NaCl, pH 7.5; single-site fit

T4 sequence (E9SHH5 entry or part of it): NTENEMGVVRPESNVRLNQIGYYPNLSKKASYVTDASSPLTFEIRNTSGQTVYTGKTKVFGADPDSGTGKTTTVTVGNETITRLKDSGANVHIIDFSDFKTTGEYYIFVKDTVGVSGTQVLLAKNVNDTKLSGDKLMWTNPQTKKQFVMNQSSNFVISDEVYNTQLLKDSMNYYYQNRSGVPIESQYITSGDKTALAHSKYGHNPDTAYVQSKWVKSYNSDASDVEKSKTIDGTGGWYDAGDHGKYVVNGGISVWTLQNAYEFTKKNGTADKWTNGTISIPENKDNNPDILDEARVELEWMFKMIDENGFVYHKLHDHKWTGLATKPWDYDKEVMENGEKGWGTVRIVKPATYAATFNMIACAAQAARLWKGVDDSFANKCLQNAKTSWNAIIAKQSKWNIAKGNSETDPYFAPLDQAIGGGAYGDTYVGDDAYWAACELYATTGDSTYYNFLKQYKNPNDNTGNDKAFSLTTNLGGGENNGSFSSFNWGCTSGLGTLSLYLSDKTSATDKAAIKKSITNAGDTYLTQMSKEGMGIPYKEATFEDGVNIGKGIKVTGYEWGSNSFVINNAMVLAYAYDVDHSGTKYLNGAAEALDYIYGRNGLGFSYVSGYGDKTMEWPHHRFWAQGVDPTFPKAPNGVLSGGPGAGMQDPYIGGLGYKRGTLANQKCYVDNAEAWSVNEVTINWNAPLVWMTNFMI
T1 sequence (E9SHH5 entry or part of it): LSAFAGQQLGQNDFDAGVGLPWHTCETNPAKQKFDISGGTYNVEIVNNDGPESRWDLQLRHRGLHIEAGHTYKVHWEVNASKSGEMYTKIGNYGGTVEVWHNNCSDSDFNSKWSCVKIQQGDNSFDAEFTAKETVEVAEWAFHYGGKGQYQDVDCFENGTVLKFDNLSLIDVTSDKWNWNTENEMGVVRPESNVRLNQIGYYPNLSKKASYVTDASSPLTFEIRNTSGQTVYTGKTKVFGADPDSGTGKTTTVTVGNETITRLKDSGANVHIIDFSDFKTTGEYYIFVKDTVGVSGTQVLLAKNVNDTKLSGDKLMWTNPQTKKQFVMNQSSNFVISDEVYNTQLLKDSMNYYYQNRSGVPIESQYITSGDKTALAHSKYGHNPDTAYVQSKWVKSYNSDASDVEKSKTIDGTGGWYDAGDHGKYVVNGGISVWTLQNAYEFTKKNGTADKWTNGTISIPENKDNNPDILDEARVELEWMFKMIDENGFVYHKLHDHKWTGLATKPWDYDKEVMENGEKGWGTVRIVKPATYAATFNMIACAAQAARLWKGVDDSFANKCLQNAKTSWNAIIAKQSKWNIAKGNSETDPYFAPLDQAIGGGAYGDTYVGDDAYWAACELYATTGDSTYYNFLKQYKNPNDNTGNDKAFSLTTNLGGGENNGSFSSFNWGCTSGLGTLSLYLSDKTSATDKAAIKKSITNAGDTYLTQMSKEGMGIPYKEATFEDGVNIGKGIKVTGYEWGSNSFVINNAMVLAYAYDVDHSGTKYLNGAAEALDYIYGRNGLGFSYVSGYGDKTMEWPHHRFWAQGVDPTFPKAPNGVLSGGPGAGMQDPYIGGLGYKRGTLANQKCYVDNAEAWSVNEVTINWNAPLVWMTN
T3 sequence (E9SHH5 entry or part of it): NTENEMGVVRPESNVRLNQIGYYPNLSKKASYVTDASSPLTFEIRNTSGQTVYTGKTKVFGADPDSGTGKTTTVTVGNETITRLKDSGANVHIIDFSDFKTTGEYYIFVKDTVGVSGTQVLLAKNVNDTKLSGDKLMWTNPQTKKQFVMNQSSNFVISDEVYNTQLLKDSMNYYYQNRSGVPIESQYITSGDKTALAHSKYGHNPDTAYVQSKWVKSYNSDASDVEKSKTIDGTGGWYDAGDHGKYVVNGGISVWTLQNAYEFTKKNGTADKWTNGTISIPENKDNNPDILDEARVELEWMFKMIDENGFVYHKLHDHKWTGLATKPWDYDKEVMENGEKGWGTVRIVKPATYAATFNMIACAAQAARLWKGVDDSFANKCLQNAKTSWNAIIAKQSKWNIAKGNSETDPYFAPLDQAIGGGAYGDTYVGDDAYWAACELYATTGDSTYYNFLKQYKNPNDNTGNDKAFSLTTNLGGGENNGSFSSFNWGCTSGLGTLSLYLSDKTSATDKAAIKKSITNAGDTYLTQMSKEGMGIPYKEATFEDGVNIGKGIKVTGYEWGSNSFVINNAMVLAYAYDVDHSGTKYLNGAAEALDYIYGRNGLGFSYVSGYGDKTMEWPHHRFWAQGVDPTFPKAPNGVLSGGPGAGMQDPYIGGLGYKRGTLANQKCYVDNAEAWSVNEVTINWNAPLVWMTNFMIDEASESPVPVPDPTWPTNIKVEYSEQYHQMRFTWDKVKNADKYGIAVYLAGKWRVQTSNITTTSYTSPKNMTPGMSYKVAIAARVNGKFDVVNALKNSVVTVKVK
T2 sequence (E9SHH5 entry or part of it): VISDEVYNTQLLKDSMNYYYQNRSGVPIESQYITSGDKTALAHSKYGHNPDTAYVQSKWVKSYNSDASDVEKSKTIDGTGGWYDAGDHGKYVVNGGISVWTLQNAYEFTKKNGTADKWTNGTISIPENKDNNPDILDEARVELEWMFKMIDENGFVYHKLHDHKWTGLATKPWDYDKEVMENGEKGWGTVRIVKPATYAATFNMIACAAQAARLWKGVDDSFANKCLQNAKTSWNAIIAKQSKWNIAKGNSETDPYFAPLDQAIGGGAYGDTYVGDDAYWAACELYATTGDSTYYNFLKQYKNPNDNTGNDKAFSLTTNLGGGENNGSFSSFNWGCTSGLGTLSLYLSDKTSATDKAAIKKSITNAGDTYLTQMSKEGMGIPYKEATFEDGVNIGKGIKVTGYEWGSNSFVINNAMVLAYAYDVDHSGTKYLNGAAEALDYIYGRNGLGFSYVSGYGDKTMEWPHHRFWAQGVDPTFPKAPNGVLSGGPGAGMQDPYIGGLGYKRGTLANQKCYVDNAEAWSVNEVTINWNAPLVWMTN
T5 sequence (E9SHH5 entry or part of it): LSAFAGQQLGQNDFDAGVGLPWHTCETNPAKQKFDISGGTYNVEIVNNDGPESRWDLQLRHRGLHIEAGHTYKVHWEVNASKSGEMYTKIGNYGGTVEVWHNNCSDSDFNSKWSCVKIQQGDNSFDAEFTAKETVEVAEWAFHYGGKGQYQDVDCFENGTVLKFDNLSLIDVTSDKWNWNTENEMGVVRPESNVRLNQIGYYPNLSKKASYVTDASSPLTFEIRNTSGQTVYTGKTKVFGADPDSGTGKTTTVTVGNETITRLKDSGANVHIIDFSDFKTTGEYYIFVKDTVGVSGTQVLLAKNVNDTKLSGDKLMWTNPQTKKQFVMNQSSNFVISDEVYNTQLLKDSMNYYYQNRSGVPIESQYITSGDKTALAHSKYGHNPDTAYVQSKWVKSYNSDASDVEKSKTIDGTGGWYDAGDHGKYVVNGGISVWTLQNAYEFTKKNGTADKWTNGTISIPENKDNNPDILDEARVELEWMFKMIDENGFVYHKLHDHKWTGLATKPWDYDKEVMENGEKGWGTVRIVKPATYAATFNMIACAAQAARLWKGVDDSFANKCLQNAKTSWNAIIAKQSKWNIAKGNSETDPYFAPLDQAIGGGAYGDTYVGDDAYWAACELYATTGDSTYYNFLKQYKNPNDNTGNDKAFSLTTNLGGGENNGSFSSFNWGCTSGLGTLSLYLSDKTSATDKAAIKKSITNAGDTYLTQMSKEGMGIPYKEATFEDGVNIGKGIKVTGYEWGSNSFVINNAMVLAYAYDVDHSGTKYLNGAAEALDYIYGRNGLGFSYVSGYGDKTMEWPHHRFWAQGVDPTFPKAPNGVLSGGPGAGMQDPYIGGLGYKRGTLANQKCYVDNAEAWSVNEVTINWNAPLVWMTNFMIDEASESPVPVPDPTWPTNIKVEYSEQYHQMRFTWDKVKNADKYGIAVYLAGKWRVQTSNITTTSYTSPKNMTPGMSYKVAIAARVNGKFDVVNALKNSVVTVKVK

Km (Ra3055 TM2 [1]) [mM]	Km (Ra3055 TM4) [mM]	Km (Ra3055 TM1 [2]) [mM]	Km (Ra3055 TM3 [3]) [mM]	Ka (Ra3055 TM3 [4])	Ka (Ra3055 TM1 [5])	Ka (Ra3055 (WT))	Ka (Ra3055 TM2 [6])	SMILES
5.6 ± 0.9	7.9 ± 3.6	4.5 ± 0.3	2.9 ± 0.1					OC[C@H]1O[C@@H](O[C@H]2[C@H](O)[C@@H](O)[C@H](O[C@H]3[C@H](O)[C@@H](O)[C@H](O[C@H]4[C@H](O)[C@@H](O)C(O)O[C@@H]4CO)O[C@@H]3CO)O[C@@H]2CO)[C@H](O)[C@@H](O)[C@@H]1O (some centres unmarked) [G4, cellotetraose]
				5.06E5±4.41E4	6.38E5±1.57E5	2.94E4±7.38E3	3.49E4±4.59E3	OC[C@H]1O[C@@H](O[C@H]2[C@H](O)[C@@H](O)[C@H](O[C@H]3[C@H](O)[C@@H](O)[C@H](O[C@H]4[C@H](O)[C@@H](O)[C@H](O[C@H]5[C@H](O)[C@@H](O)C(O)O[C@@H]5CO)O[C@@H]4CO)O[C@@H]3CO)O[C@@H]2CO)[C@H](O)[C@@H](O)[C@@H]1O (some centres unmarked) [G5, cellopentaose]
